# Laboratory results: patent US11584744B2 (UNIVERSITY OF WASHINGTON, priority 2017, dated 2023)
# “And” between values parts separate entries of the source, which are not always exact repeats. Equal values may be shown once. Read-outs that look alike come from different tables or passages of the source.
# Legend:
# MetRS (C. parvum) = MetRS (C. parvum) (Cryptosporidium parvum, UniProt Q5CVN0); assay: MetRS (C. parvum) enzyme inhibition; format: biochemical
# C. parvum = C. parvum growth inhibition; format: cell-based, Cryptosporidium parvum; conditions: read-out: (J) C. parvum EC50
# [1] = test system: S. aureus MSSA (ATCC 29213); assay: MIC susceptibility testing; format: cell-based, Staphylococcus aureus; conditions: for MIC: Staphylococcus aureus, read-out: (F) S. aureus (ATCC 29213) MIC
# [2] = test system: S. aureus MRSA (ATCC 33591); assay: MIC susceptibility testing; format: cell-based, Staphylococcus aureus; conditions: Staphylococcus aureus, read-out: (G) MRSA (ATCC33591) MIC
# In short: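 CLSI broth microdilution with two-fold compound dilutions, in triplicate; cells added in medium at 1×10^6 CFUs/mL, DMSO ≤0.5%. Media: MHB for S. aureus, CA-MHB for E. coli and E. faecium, CA-MHB plus 3% laked horse blood for S. pyogenes (5% CO2).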
# T. cruzi = T. cruzi growth inhibition; format: cell-based, Trypanosoma cruzi; conditions: read-out: (E) T. cruzi EC50
# T. brucei = T. brucei growth inhibition; format: cell-based, Trypanosoma brucei; conditions: read-out: (D) T. brucei EC50
# [3] = test system: E. faecium VRE (ATCC 51559); assay: MIC susceptibility testing; format: cell-based, Enterococcus faecium; conditions: for MIC: Enterococcus faecium, read-out: (I) E. faecium (ATCC 51559) MIC
# Excerpt: Media and culture conditions. Mueller Hinton broth (MHB), cation adjusted Mueller Hinton broth (CA-MHB), and Brain Heart Infusion broth (BHI) were purchased from Becton Dickinson (Franklin Lakes, N.J.). Tryptic soy agar (TSA) plates, TSA with 5% sheep blood plates, and CA-MHB with 3% laked horse blood were purchased from Remel (San Diego, Calif.). MHB was used to assay all Staphylococcus aureus strains. CA-MHB was used for Staphylococcus epidermidis, Enterococcus faecalis, Enterococcus faecium, Escherichia coli, and Pseudomonas aeruginosa. CA-MHB supplemented with 3% laked horse blood was used for Streptococcus pneumoniae and Streptococcus pyogenes. Staphylococcus, Enterococcus, Escherichia, and Pseudomonas strains were cultured at 37° C. with ambient air. Streptococcus strains were cultured in 37° C. with 5% CO2. Separate conditions for radiolabeled precursor uptake assays are described below.
# Susceptibility testing: Minimum inhibitory concentration (MIC) determinations were performed in triplicate in 96-well round bottom microtiter plates (Corning, Corning N.Y.) as described by the Clinical and Laboratory Standards Institute (CLSI). Serial two-fold dilutions of compounds were added to plates in 50 μL volumes. An additional 50 μL of media containing bacterial cells (1×10^6 CFUs/mL) was then added to each well. Maximum DMSO concentrations were 0.5%. Plates were incubated at 37° C. for at least 18 h before reading the susceptibility result by optical absorbance (OD600) using a BioTek ELx800. The lowest concentration causing ≥90% growth inhibition compared to the untreated control was recorded as the MIC (and also corresponded to the visual MIC). MICs were measured at least twice and the higher value (if different) was recorded herein.
# MetRS (T. brucei) = target: T1, MetRS (T. brucei) (Trypanosoma brucei brucei, UniProt Q38C91); assay: MetRS (T. brucei) enzyme inhibition; format: biochemical
# T1 sequence (Q38C91 1-773): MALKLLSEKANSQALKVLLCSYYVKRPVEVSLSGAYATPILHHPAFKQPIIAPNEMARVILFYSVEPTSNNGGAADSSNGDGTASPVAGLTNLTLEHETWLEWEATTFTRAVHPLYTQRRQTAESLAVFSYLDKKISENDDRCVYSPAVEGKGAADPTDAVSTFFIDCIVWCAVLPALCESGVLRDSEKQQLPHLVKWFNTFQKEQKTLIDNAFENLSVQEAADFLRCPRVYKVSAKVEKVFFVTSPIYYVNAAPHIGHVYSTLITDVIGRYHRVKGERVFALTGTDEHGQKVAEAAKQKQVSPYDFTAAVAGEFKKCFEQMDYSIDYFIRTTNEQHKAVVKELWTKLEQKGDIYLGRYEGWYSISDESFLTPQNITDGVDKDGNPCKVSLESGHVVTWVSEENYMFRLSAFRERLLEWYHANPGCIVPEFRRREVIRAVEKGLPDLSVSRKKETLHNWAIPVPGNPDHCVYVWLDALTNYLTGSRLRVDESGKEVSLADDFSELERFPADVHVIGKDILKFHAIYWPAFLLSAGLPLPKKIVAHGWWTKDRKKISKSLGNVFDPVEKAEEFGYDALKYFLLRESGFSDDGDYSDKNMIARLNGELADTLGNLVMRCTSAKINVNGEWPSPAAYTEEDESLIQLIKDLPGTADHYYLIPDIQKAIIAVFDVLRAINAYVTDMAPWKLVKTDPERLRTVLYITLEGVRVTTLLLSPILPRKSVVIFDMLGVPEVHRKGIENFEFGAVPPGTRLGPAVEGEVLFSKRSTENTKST
# [4] = read-out: (C) MetRS (C. parvum) IC50
# Sequence of MetRS (C. parvum) (Q5CVN0 entry or part of it): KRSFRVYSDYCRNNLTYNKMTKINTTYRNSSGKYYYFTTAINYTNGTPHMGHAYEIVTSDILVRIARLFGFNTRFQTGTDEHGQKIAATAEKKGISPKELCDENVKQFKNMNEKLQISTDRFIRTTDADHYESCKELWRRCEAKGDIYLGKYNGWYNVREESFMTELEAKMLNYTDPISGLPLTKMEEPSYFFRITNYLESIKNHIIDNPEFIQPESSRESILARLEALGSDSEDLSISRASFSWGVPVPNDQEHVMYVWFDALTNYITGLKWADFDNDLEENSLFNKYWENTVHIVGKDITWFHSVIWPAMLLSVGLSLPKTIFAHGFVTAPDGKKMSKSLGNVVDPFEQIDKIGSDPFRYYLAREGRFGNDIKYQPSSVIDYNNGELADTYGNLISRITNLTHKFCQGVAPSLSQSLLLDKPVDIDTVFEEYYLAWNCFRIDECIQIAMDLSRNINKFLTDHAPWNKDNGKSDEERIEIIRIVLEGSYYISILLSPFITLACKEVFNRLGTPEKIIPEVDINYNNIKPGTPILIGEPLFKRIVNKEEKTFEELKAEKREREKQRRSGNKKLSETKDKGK
SMILES,IC50 (MetRS (C. parvum); [4]),EC50 (C. parvum; Cryptosporidium parvum),EC50 (C. parvum),MIC ([1]; S. aureus ATCC 29213),MIC ([2]; MRSA ATCC33591),EC50 (T. cruzi; Trypanosoma cruzi),EC50 (T. brucei; Trypanosoma brucei),MIC ([3]; E. faecium ATCC 51559),IC50 (MetRS (T. brucei)),(F) S. aureus (ATCC 29213) MIC ([1]; S. aureus ATCC 29213),EC50 (T. cruzi),EC50 (T. brucei),(I) E. faecium (ATCC 51559) MIC ([3]; E. faecium ATCC 51559),IC50 (MetRS (C. parvum)),MIC [1],MIC [2],MIC [3]
"Clc1ccc(Cc2cn(Cc3nc4nc(Cl)ccc4[nH]3)cn2)c(Cl)c1 [Compound 2189, 1-({5-chloro-1H-imidazo[4,5-b]pyridin-2-yl}methyl)-4-[(2,4-dichlorophenyl)methyl]-1H-imidazole]",–,2000 nM,–,–,–,156 nM,7.9 nM,–,< 40 nM,–,–,–,–,< 40 nM,0.676 µg/mL,0.596 µg/mL,0.704 µg/mL
"O=C(c1cn(Cc2nc3ccc(Cl)nc3[nH]2)c(=O)[nH]1)c1ccc(Cl)cc1Cl [Compound 2201, 1-({5-chloro-1H-imidazo[4,5-b]pyridin-2-yl}methyl)-4-(2,4-dichlorobenzoyl)-2,3-dihydro-1H-imidazol-2-one]",72.2 nM,> 2000 nM,–,0.863 µg/mL,0.701 µg/mL,207 nM,4.88 nM,0.979 µg/mL,< 40 nM,0.946 µg/mL,–,–,–,–,–,–,–
"CCn1c(C(=O)c2ccc(Cl)cc2Cl)cn(Cc2nc3ccc(Cl)nc3[nH]2)c1=O [Compound 2203, 1-((5-chloro-3H-imidazo[4,5-b]pyridin-2-yl)methyl)-4-(2,4-dichlorobenzoyl)-3-ethyl-1,3-dihydro-2H-imidazol-2-one]",99.4 nM,> 2000 nM,–,0.34 µg/mL,0.359 µg/mL,34.7 nM,1.73 nM,0.172 µg/mL,< 40 nM,–,45.2 nM,–,–,–,–,–,–
"CCn1c(C(O)c2ccc(Cl)cc2Cl)cn(Cc2nc3nc(Cl)ccc3[nH]2)c1=O (stereo not drawn) [Compound 2204, 1-({5-chloro-1H-imidazo[4,5-b]pyridin-2-yl}methyl)-4-[(2,4-dichlorophenyl)(hydroxy)methyl]-3-ethyl-2,3-dihydro-1H-imidazol-2-one]",82.5 nM,1920 nM,–,1.11 µg/mL,0.293 µg/mL,366 nM,6.38 nM,0.167 µg/mL,53 nM,0.927 µg/mL,–,–,–,–,–,–,–
"COc1cc(Cl)c(-c2cnn3c2CN(Cc2nc4nc(Cl)ccc4[nH]2)CC3)cc1OC [Compound 2205, 5-chlor0-2-((3-(2-chloro-4,5-dimethoxyphenyl)-6,7-dihydropyrazolo[1,5-a]pyrazin-5(4H)-yl)methyl)-1H-imidazo[4,5-b]pyridine]",65.2 nM,> 2000 nM,–,0.652 µg/mL,0.265 µg/mL,109 nM,12.4 nM,0.0839 µg/mL,< 40 nM,"0.441, μg/ml and 0.450 μg/ml",–,–,–,–,–,–,–
"CC(C)(O)Cn1c(Cc2ccc(Cl)cc2Cl)cn(Cc2nc3ccc(Cl)nc3[nH]2)c1=O [Compound 2211, 1-((5-chloro-3H-imidazo[4,5-b]pyridin-2-yl)methyl)-4-(2,4-dichlorobenzyl)-3-(2-hydroxy-2-methylpropyl)-1,3-dihydro-2H-imidazol-2-one]",50.2 nM,1170 nM,–,0.493 µg/mL,0.489 µg/mL,21.7 nM,< 0.91 nM,0.389 µg/mL,< 40 nM,0.590 µg/mL,22.1 nM,1.16 nM,0.281 µg/mL,–,–,–,–
"COc1ccc(-c2cccc3c2CN(Cc2nc4nc(Cl)ccc4[nH]2)C3)c(Cl)c1 [Compound 2224, 5-chlor0-2-((4-(2-chloro-4-methoxyphenyl)isoindolin-2-yl)methyl)-1H-imidazo[4,5-b]pyridine]",< 40 nM,> 2000 nM,–,1.07 µg/mL,1.17 µg/mL,174 nM,23.7 nM,0.995 µg/mL,52 nM,1.37 µg/mL,–,–,–,–,–,–,–

# The next lines start with results.
IC50 (MetRS (C. parvum); [4]),EC50 (C. parvum; Cryptosporidium parvum),EC50 (C. parvum),MIC ([1]; S. aureus ATCC 29213),MIC ([2]; MRSA ATCC33591),EC50 (T. cruzi; Trypanosoma cruzi),EC50 (T. brucei; Trypanosoma brucei),MIC ([3]; E. faecium ATCC 51559),IC50 (MetRS (T. brucei)),(F) S. aureus (ATCC 29213) MIC ([1]; S. aureus ATCC 29213),EC50 (T. cruzi),EC50 (T. brucei),(I) E. faecium (ATCC 51559) MIC ([3]; E. faecium ATCC 51559),SMILES,IC50 (MetRS (C. parvum)),MIC [1],MIC [2],MIC [3]
< 40 nM,656 nM,640 nM,0.362 µg/mL,0.515 µg/mL,179 nM,18.5 nM,0.357 µg/mL,< 40 nM,–,–,–,–,"COc1ccc(-c2ccc(NC(C)=O)c3nc(Cc4nc5cc(Cl)ccc5[nH]4)cn23)c(Cl)c1 [Compound 2180, N-{2-[(6-chloro-1H-1,3-benzodiazol-2-yl)methyl]-5-(2-chloro-4-methoxyphenyl)imidazo[1,2-a]pyridin-8-yl}acetamide]",–,–,–,–
< 40 nM,> 2000 nM,–,0.285 µg/mL,0.298 µg/mL,108 nM,6.72 nM,0.166 µg/mL,< 40 nM,–,–,–,–,"CCn1c(Cc2ccc(Cl)cc2Cl)cn(Cc2nc3ccc(Cl)c(C#N)c3[nH]2)c1=O [Compound 2210, 6-chlor0-2-({4-[(2,4-dichlorophenyl)methyl]-3-ethyl-2-oxo-2,3-dihydro-1H-imidazol-1-yl}methyl)-1H-1,3-benzodiazole-7-carbonitrile]",–,–,–,–
< 40 nM,1910 nM,–,0.422 µg/mL,0.52 µg/mL,63.4 nM,2.12 nM,0.272 µg/mL,< 40 nM,0.574 µg/mL,71.3 nM,–,–,"O=c1n(Cc2nc3ccc(Cl)nc3[nH]2)cc(Cc2ccc(Cl)cc2Cl)n1CCO [Compound 2213, 1-({5-chloro-1H-imidazo[4,5-b]pyridin-2-yl}methyl)-4-[(2,4-dichlorophenyl)-methyl]-3-(2-hydroxyethyl)-2,3-dihydro-1H-imidazol-2-one]",–,–,–,–
< 40 nM,> 2000 nM,–,0.298 µg/mL,0.26 µg/mL,14.8 nM,< 0.91 nM,0.272 µg/mL,< 40 nM,–,25.4 nM,0.46 nM,–,"CCOC(=O)Cn1c(C(=O)c2ccc(Cl)cc2Cl)cn(Cc2nc3ccc(Cl)nc3[nH]2)c1=O [Compound 2215, ethyl 2-[3-({5-chloro-1H-imidazo[4,5-b]pyridin-2-yl}methyl)-5-(2,4-dichlorobenzoyl)-2-oxo-2,3-dihydro-1H-imidazol-1-yl]acetate]",–,–,–,–
